The record followed here is patent US20200100505A1, “MICROBIAL INSECTICIDE FOR CONTROL OF MULBERRY THRIPS” (FARMHANNONG CO., LTD., priority 2017, published 2020).

This assay concerns Western flower thrips. Kind of assay: Insecticidal effect against thrips on caged potted tomato crop. It is filed as in vivo. As to conditions: tomato pot in cage, granules 2 g per pot, clothianidin 0.02 g per pot. The procedure:
An experiment on the insecticidal effect against thrips was carried out in a tomato crop. A population of the tomato crop having a height of 20 to 25 cm was used, and the tomato crop was put into a plastic cage (30×30×60 cm^3) equipped with a sieve with mesh smaller than that of Western flower thrips to prevent Western flower thrips from moving from a treatment zone, and an experiment was then performed.
A pot in which a tomato crop was planted, was treated with 2 g of the microbial insecticide granules of the present invention prepared in Example 1. Also, as the comparison group, the tomato crop was treated with an agricultural chemical (i.e., clothianidin) known to show a potent insecticidal effect against thrips at an amount of 0.02 g (i.e., an amount of 3 kg/10 a) per pot, and no insecticide was applied to the pot of the control group.

With `CN/C(=N\[N+](=O)[O-])NCc1cnc(Cl)s1` [clothianidin], the “Thrips density After 20 days” value (after 20 days) is recorded as 3.7 ± 0.5 number/plant. Where the note is “after 40 days”, the “Thrips density After 40 days” value stood at 2.4 ± 0.4 number/plant.
